# Measurements: patent US9029409B2, “Isoxazolines as therapeutic agents” (AbbVie Inc., priority 2011, dated 2015)
# Target: T1, recombinant human MMP13 catalytic domain (CD) (Homo sapiens, UniProt P45452)
# T1 construct: catalytic domain (CD) construct encompassing residues 20-274 (SWISS-PROT P45452); made in house
# Assay: MMP-13 catalytic domain FRET enzyme assay
# Format: biochemical
# Conditions: recombinant human MMP-13 catalytic domain
# Procedure: A recombinant human MMP13 catalytic domain (CD) construct encompassing residues 20-274 (SWISS-PROT P45452) was generated by synthetic gene methods and bacterial expression. MMP-13 activity assays were performed using the recombinant human MMP-13 CD at a 0.4 nM concentration and the fluorogenic substrate (QXL-520)-K-P-L-A˜Nva-Dap(5-FAM)-A-R-NH2 (Anaspec cat #60554-01, San Jose, Calif.) at a 0.25 μM concentration in assay buffer containing […], pH 7.5, 10 mM CaCl2, 150 mM NaCl, 0.05% Brij 35. The assay is based on the cleavage of this substrate by MMP-13, resulting in decrease of FRET between the donor-acceptor pair and subsequent fluorescence enhancement. The assays were carried out in 384-well plates (Greiner cat #781076, Germany) for 60 min at RT. After the incubation period, the reaction was quenched by the addition of 5 μL of 500 mM EDTA (100 mM final concentration) (Rankem, Cat #E0120, India) mixed well and the rate of substrate hydrolysis was determined by monitoring change in fluorescence at excitation and emission wavelengths of 485 nm and 535 nm respectively. Fluorescence was measured on a Victor V5 plate reader (Perkin Elmer, Turku, Finland). The test compounds used for assessing the potency of inhibition of MMP-13 activity were dissolved in DMSO (final DMSO concentration in the assay was 5%). Selected compounds were also screened against full length MMP13 (R&D Systems (Cat. No. 511-MM-010), Minneapolis, Minn.) at 2 nM concentration using the same fluorogenic substrate mentioned above. The enzyme was activated using 1 m Mp-aminophenylmercuric acetate—APMA (Cat #A-9563, Sigma, Germany).
# Data analysis: The percent inhibition of the enzyme activity in presence of test compounds were calculated using the equation, percent (%) Inhibition=100−[(Fi/Fc)*100] where Fc is the fluorescence corresponding to initial enzyme activity and Fi is the fluorescence corresponding to the enzyme activity in presence of inhibitor. The IC50 values were calculated by fitting the dose-response data to a sigmoidal curve fitting equation using Graph Pad prism software (Version 5, La Jolla, Calif.).
# MMP13 Catalytic Domain (CD) Potency of the Described Examples Determined Using Time Resolved Fluorescence Resonance Energy Transfer (FRET) Enzyme Assays: […]
row,SMILES,IC50 [nM]
1,COc1ccc(CNC(=O)c2cc(C3=NOC(c4ccc(OCCO)cc4)C3)nc(C)n2)cc1 (stereo not drawn),10 to 100
2,COc1cc(CNC(=O)c2cc(C3=NOC(c4ccc(CO)cc4)C3)nc(C)n2)ccc1F (stereo not drawn),< 10
3,COc1cc(CNC(=O)c2cc(C3=NOC(c4ccc(N5CCC(CO)CC5)cc4)C3)nc(C)n2)ccc1F (stereo not drawn),10 to 100
4,COc1cc(CNC(=O)c2cc(C3=NOC(c4ccc(CN5CCOCC5)cc4)C3)nc(C)n2)ccc1F (stereo not drawn),10 to 100
5,COc1ccc(CNC(=O)c2cc(C3=NOC(c4nn[nH]n4)C3)nc(C)n2)cc1 (stereo not drawn),> 1000
6,COc1cc(CNC(=O)c2cc(C3=NOC(c4ccc(CN5CCSCC5)cc4)C3)nc(C)n2)ccc1F (stereo not drawn),< 10
7,COc1cc(CNC(=O)c2cc(C3=NOC(c4cccc(C(N)=O)c4)C3)nc(C)n2)ccc1F (stereo not drawn),< 10
8,COc1cc(CNC(=O)c2cc(C3=NOC(c4ccc(=O)n(CCO)c4)C3)nc(C)n2)ccc1F (stereo not drawn),10 to 100
9,Cc1nc(C(=O)NCc2ccc(F)c(Cl)c2)cc(C2=NOC(c3ccc(=O)n(C)c3)C2)n1 (stereo not drawn),< 10
10,Cc1nc(C(=O)NCc2ccc(F)c(F)c2)cc(C2=NOC(c3ccc(=O)n(C)c3)C2)n1 (stereo not drawn),10 to 100
11,Cc1nc(C(=O)NCc2ccc(F)c(F)c2)cc(C2=NOC(c3ccc(C#N)nn3)C2)n1 (stereo not drawn),10 to 100
12,Cc1nc(C(=O)NCc2ccc(F)c(Cl)c2)cc(C2=NOC(c3ccc(C#N)nn3)C2)n1 (stereo not drawn),10 to 100
13,CC(=O)N[C@H]1CC[C@H](C2CC(c3cc(C(=O)NCc4ccc(F)c(Cl)c4)nc(C)n3)=NO2)CC1 (stereo partly drawn),< 10
14,CC(=O)N[C@H]1CC[C@H](C2CC(c3cc(C(=O)NCc4ccc(F)cc4)nc(C)n3)=NO2)CC1 (stereo partly drawn),10 to 100
15,CC(=O)N[C@H]1CC[C@H](C2CC(c3cc(C(=O)NCc4ccc(F)c(F)c4)nc(C)n3)=NO2)CC1 (stereo partly drawn),10 to 100
16,Cc1nc(C(=O)NCc2ccc3c(c2)CCO3)cc(C2=NO[C@H]([C@H]3CO[C@H](CO)CO3)C2)n1,10 to 100
17,Cc1nc(C(=O)NCc2cccc(F)c2)cc(C2=NO[C@H]([C@H]3CO[C@H](CO)CO3)C2)n1,> 1000
18,Cc1nc(C(=O)NCc2cccc(F)c2)cc(C2=NO[C@@H]([C@H]3CO[C@H](CO)CO3)C2)n1,> 1000
19,Cc1nc(C(=O)NCc2ccc3oc(C)nc3c2)cc(C2=NO[C@H]([C@H]3CO[C@H](CO)CO3)C2)n1,10 to 100
20,Cc1nc(C(=O)NCc2ccc3oc(C)nc3c2)cc(C2=NO[C@@H]([C@H]3CO[C@H](CO)CO3)C2)n1,> 1000
21,COC[C@@H]1CO[C@@H]([C@@H]2CC(c3cc(C(=O)NCc4ccc(F)c(OC)c4)nc(C)n3)=NO2)CO1,10 to 100
22,COC[C@@H]1CO[C@@H]([C@H]2CC(c3cc(C(=O)NCc4ccc(F)c(OC)c4)nc(C)n3)=NO2)CO1,> 1000

row,SMILES,IC50 [nM]
1,COc1cc(CNC(=O)c2cc(C3=NO[C@H]([C@H]4CO[C@H](CNC(=O)[C@H](C)O)CO4)C3)nc(C)n2)ccc1F,< 10
2,Cc1nc(C(=O)NCc2ccc(F)c(C)c2)cc(C2=NOC([C@H]3CC[C@H](NC(=O)[C@H](C)O)CC3)C2)n1 (stereo partly drawn),< 10
3,Cc1nc(C(=O)NCc2ccc3c(c2)OCCO3)cc(C2=NO[C@H]([C@H]3CO[C@H](CO)CO3)C2)n1,10 to 100
4,Cc1nc(C(=O)NCc2ccc3c(c2)OCCO3)cc(C2=NO[C@@H]([C@H]3CO[C@H](CO)CO3)C2)n1,> 1000
5,Cc1nc(C(=O)NCc2ccc(F)cc2)cc(C2=NOC([C@H]3CC[C@H](NC(=O)[C@H](C)O)CC3)C2)n1 (stereo partly drawn),10 to 100
6,Cc1nc(C(=O)NCc2ccc3c(c2)NC(=O)CO3)cc(C2=NO[C@H]([C@H]3CO[C@H](CO)CO3)C2)n1,< 10
7,Cc1nc(C(=O)NCc2ccc3c(c2)NC(=O)CO3)cc(C2=NO[C@@H]([C@H]3CO[C@H](CO)CO3)C2)n1,10 to 100
8,COc1cc(CNC(=O)c2cc(C3=NOC(c4ccn(C)c(=O)c4)C3)nc(C)n2)ccc1F (stereo not drawn),10 to 100
9,COc1cc(CNC(=O)c2cc(C3=NOC(c4ccc(=O)n(C5CC5)c4)C3)nc(C)n2)ccc1F (stereo not drawn),< 10
10,COc1cc(CNC(=O)c2cc(C3=NOC(c4ccc(=O)n(C)n4)C3)nc(C)n2)ccc1F (stereo not drawn),10 to 100
11,COc1ccc(CNC(=O)c2cc(C3CC(c4ccc(OCCO)cc4)=NO3)nc(C)n2)cc1 (stereo not drawn),10 to 100
12,COc1cc(CNC(=O)c2cc(C3CC(c4ccccc4)=NO3)nc(C)n2)ccc1F (stereo not drawn),10 to 100
13,COc1cc(CNC(=O)c2cc(C3CC(c4ccc(OCCO)cc4)=NO3)nc(C)n2)ccc1F (stereo not drawn),10 to 100
14,COc1ccc(CNC(=O)c2cc(C3CC(c4ccccc4)=NO3)nc(C)n2)cc1 (stereo not drawn),100 to 1000
15,COc1cc(CNC(=O)c2cc(C3=NO[C@H](C4CCN(C(=O)CO)CC4)C3)nc(C)n2)ccc1F,< 10
16,COc1cc(CNC(=O)c2cc(C3=NO[C@@H](C4CCN(C(=O)CO)CC4)C3)nc(C)n2)ccc1F,10 to 100
17,COc1ccc(CNC(=O)c2cc(C3=NO[C@H](c4ccc(OCCO)cc4)C3)nc(C)n2)cc1,< 10
18,COc1ccc(CNC(=O)c2cc(C3=NO[C@@H](c4ccc(OCCO)cc4)C3)nc(C)n2)cc1,10 to 100
19,COc1cc(CNC(=O)c2cc(C3=NO[C@H](c4ccc(CO)cc4)C3)nc(C)n2)ccc1F,> 1000
20,COc1cc(CNC(=O)c2cc(C3=NO[C@@H](c4ccc(CO)cc4)C3)nc(C)n2)ccc1F,< 10
21,CC(=O)N[C@H]1CC[C@H]([C@@H]2CC(c3cc(C(=O)NCc4ccc(F)c(C)c4)nc(C)n3)=NO2)CC1,< 10
22,CC(=O)N[C@H]1CC[C@H]([C@H]2CC(c3cc(C(=O)NCc4ccc(F)c(C)c4)nc(C)n3)=NO2)CC1,10 to 100

row,SMILES,IC50 [nM]
1,COc1cc(CNC(=O)c2cc(C3=NO[C@H]([C@H]4CC[C@H](NC(=O)[C@H](C)O)CC4)C3)nc(C)n2)ccc1F,< 10
2,COc1cc(CNC(=O)c2cc(C3=NO[C@@H]([C@H]4CC[C@H](NC(=O)[C@H](C)O)CC4)C3)nc(C)n2)ccc1F,10 to 100
3,Cc1nc(C(=O)NCc2ccc(F)c(C)c2)cc(C2=NO[C@H]([C@H]3CC[C@H](NC(=O)[C@H](C)O)CC3)C2)n1,< 10
4,Cc1nc(C(=O)NCc2ccc(F)c(C)c2)cc(C2=NO[C@@H]([C@H]3CC[C@H](NC(=O)[C@H](C)O)CC3)C2)n1,10 to 100
5,Cc1nc(C(=O)NCc2ccc(F)c(Cl)c2)cc(C2=NO[C@H]([C@H]3CC[C@H](NC(=O)[C@H](C)O)CC3)C2)n1,< 10
6,Cc1nc(C(=O)NCc2ccc(F)c(Cl)c2)cc(C2=NO[C@@H]([C@H]3CC[C@H](NC(=O)[C@H](C)O)CC3)C2)n1,10 to 100
7,COc1cc(CNC(=O)c2cc(C3=NO[C@H](c4ccc(=O)n(C)c4)C3)nc(C)n2)ccc1F,< 10
8,COc1cc(CNC(=O)c2cc(C3=NO[C@@H](c4ccc(=O)n(C)c4)C3)nc(C)n2)ccc1F,100 to 1000
9,CC(=O)N[C@H]1CC[C@H](C2CC(c3cc(C(=O)NCc4ccncc4)nc(C)n3)=NO2)CC1 (stereo partly drawn),10 to 100
10,Cc1nc(C(=O)NCc2ccncc2)cc(C2=NO[C@H]([C@H]3CO[C@H](CO)CO3)C2)n1,10 to 100
11,Cc1nc(C(=O)NCc2ccncc2)cc(C2=NO[C@@H]([C@H]3CO[C@H](CO)CO3)C2)n1,> 1000
12,CC(=O)N[C@H]1CC[C@H](C2CC(c3cc(C(=O)NCc4ccn(C)c(=O)c4)nc(C)n3)=NO2)CC1 (stereo partly drawn),> 1000
13,CC(=O)N[C@H]1CC[C@H](C2CC(c3cc(C(=O)NCc4ccc5c(c4)NC(=O)CO5)nc(C)n3)=NO2)CC1 (stereo partly drawn),< 10
14,COc1cc([C@@H](C)NC(=O)c2cc(C3=NOC(c4ccccc4)C3)nc(C)n2)ccc1F (stereo partly drawn),> 1000
15,COc1cc([C@H](C)NC(=O)c2cc(C3=NOC(c4ccccc4)C3)nc(C)n2)ccc1F (stereo partly drawn),> 1000
16,COc1cc(CNC(=O)c2cc(C3=NOC(C4CCN(C(C)=O)CC4)C3)nc(C)n2)ccc1F (stereo not drawn),10 to 100
17,COc1cc(CNC(=O)c2cc(C3=NOC(C4CCN(S(C)(=O)=O)CC4)C3)nc(C)n2)ccc1F (stereo not drawn),< 10
18,COc1cc(CNC(=O)c2cc(C3=NOC(C4CCN(C(=O)CO)CC4)C3)nc(C)n2)ccc1F (stereo not drawn),10 to 100
19,COc1cc(CNC(=O)c2cc(C3=NO[C@@H]([C@@H]4CO[C@@H](CO)CO4)C3)nc(C)n2)ccc1F,100 to 1000
20,COc1cc(CNC(=O)c2cc(C3=NO[C@H]([C@@H]4CO[C@@H](CO)CO4)C3)nc(C)n2)ccc1F,10 to 100
21,COc1cc(CNC(=O)c2cc(C3=NO[C@H]([C@H]4CO[C@H](CO)CO4)C3)nc(C)n2)ccc1F,< 10
22,COc1cc(CNC(=O)c2cc(C3=NOC(c4ccc(C(N)=O)cc4)C3)nc(C)n2)ccc1F (stereo not drawn),< 10
